SMILES strings stand for the structures. Read-outs that look alike come from different tables or passages of the source.

The target in the assay is FXR (Homo sapiens (Human), UniProt Q96RI1). Kind of assay: transient human FXR/Gal4-luciferase reporter assay. Format: cell-based. In a few lines: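 Compound exposure ran overnight at 37 °C and activity was measured as luminescence with Steady-Glo reagent. The cells were a HEK293 line stably expressing firefly luciferase under five Gal4 response elements. They were transiently transfected, one night beforehand, with a plasmid encoding Gal4 DNA-binding domain fused to the human FXR ligand-binding domain.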
FXR, sequence (Q96RI1 262-486): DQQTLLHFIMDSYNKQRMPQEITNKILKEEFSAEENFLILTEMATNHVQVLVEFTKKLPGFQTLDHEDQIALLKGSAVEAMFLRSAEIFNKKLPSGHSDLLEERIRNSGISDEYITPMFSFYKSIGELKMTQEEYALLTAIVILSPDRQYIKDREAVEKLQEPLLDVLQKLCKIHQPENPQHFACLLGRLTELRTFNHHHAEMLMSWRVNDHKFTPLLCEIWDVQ

[1] abbreviates: Gal4-hFXR fusion construct, HEK293 reporter cells, response relative to 8 μM GW-4064.

As for `CC(C)c1noc(C23CCC(CN(C(=O)C45CC(F)(C4)C5)c4cccc(-c5ccc(OC(F)F)cc5)c4)(CC2)CC3)n1` [Example 387, N-(4′-(difluoromethoxy)-[1,1′-biphenyl]-3-yl)-3-fluoro-N-((4-(3-isopropyl-1,2,4-oxadiazol-5-yl)bicyclo[2.2.2]octan-1-yl)methyl)bicyclo[1.1.1]pentane-1-carboxamide], under setting [1], a half-maximal effect (EC50) was put at 47 nM. Same read-out and setting: as for `Cn1nc(C23CCC(CN(C(=O)C45CC(F)(C4)C5)c4cccc(-c5ccc(NS(C)(=O)=O)cc5)c4)(CC2)CC3)cc1C1CC1` [Example 406, N-((4-(5-cyclopropyl-1-methyl-1H-pyrazol-3-yl)bicyclo[2.2.2]octan-1-yl)methyl)-3-fluoro-N-(4′-(methylsulfonamido)-[1,1′-biphenyl]-3-yl)bicyclo[1.1.1]pentane-1-carboxamide], the figure is 203 nM; as for `CC(C)(O)CN1CC=C(c2cccc(N(CC34CCC(c5noc(C(C)(C)F)n5)(CC3)CC4)C(=O)C34CC(F)(C3)C4)c2)CC1` [Example 663, 3-fluoro-N-((4-(5-(2-fluoropropan-2-yl)-1,2,4-oxadiazol-3-yl)bicyclo[2.2.2]octan-1-yl)methyl)-N-(3-(1-(2-hydroxy-2-methylpropyl)-1,2,3,6-tetrahydropyridin-4-yl)phenyl) bicyclo[1.1.1]pentane-1-carboxamide], 159 nM.

Under setting [1], `Cn1nc(C2CC2)cc1C12CCC(CN(C(=O)C34CC(F)(C3)C4)c3cc(-c4ccc(OC(F)F)cc4)ccn3)(CC1)CC2` [Example 545, N-((4-(3-cyclopropyl-1-methyl-1H-pyrazol-5-yl)bicyclo[2.2.2]octan-1-yl)methyl)-N-(4-(4-(difluoromethoxy)phenyl)pyridin-2-yl)-3-fluorobicyclo[1.1.1]pentane-1-carboxamide] showed an EC50 of 115 nM. `CCOc1cnc(-c2ccnc(N(CC34CCC(c5noc(C(C)(C)C)n5)(CC3)CC4)C(=O)C34CC(F)(C3)C4)c2)nc1` [Example 542, N-((4-(5-(tert-butyl)-1,2,4-oxadiazol-3-yl)bicyclo[2.2.2]octan-1-yl)methyl)-N-(4-(5-ethoxypyrimidin-2-yl)pyridin-2-yl)-3-fluorobicyclo[1.1.1]pentane-1-carboxamide] yielded a concentration for a half-maximal effect (EC50) of 22 nM.

As for `COc1ccc(-c2cccc(N(CC34CCC(c5nc(C6CC6)no5)(CC3)CC4)C(=O)C34CC(F)(C3)C4)c2)cn1` [Example 249, N-((4-(3-cyclopropyl-1,2,4-oxadiazol-5-yl)bicyclo[2.2.2]octan-1-yl)methyl)-3-fluoro-N-(3-(6-methoxypyridin-3-yl)phenyl)bicyclo[1.1.1]pentane-1-carboxamide], under setting [1], it took 153 nM to reach a half-maximal effect (EC50). On the same count and under the same terms, as for `O=C(N(CC12CCC(c3nc(C4CC4)no3)(CC1)CC2)c1cccc(-c2cnc3nc(C4CC4)sc3c2)c1)C12CC(F)(C1)C2` [Example 276, N-((4-(3-cyclopropyl-1,2,4-oxadiazol-5-yl)bicyclo[2.2.2]octan-1-yl)methyl)-N-(3-(2-cyclopropylthiazolo[4,5-b]pyridin-6-yl)phenyl)-3-fluorobicyclo[1.1.1]pentane-1-carboxamide], the figure is 77.5 nM; as for `O=C(N(CC12CCC(c3nc(C4CC4)no3)(CC1)CC2)c1cccc(-c2cccc(OC(F)(F)F)c2)c1)C12CC(F)(C1)C2` [Example 259, N-((4-(3-cyclopropyl-1,2,4-oxadiazol-5-yl)bicyclo[2.2.2]octan-1-yl)methyl)-3-fluoro-N-(3′-(trifluoromethoxy)-[1,1′-biphenyl]-3-yl)bicyclo[1.1.1]pentane-1-carboxamide], 268 nM. Still for that read-out and setting: as for `CCc1ccc(-c2cccc(N(CC34CCC(c5nc(C6CC6)no5)(CC3)CC4)C(=O)C34CC(F)(C3)C4)c2)cc1` [Example 285, N-((4-(3-cyclopropyl-1,2,4-oxadiazol-5-yl)bicyclo[2.2.2]octan-1-yl)methyl)-N-(4′-ethyl-[1,1′-biphenyl]-3-yl)-3-fluorobicyclo[1.1.1]pentane-1-carboxamide], the figure is 225 nM; as for `CC(C)(C)c1nc(C23CCC(CN(C(=O)C45CC(F)(C4)C5)c4cccc(-c5ccc(C(F)(F)F)cc5)c4)(CC2)CC3)no1` [Example 445, N-((4-(5-(tert-butyl)-1,2,4-oxadiazol-3-yl)bicyclo[2.2.2]octan-1-yl)methyl)-3-fluoro-N-(4′-(trifluoromethyl)-[1,1′-biphenyl]-3-yl)bicyclo[1.1.1]pentane-1-carboxamide], 719 nM. Under setting [1], `COc1cc(-c2cccc(N(CC34CCC(c5nnc(C6CC6)o5)(CC3)CC4)C(=O)C34CC(F)(C3)C4)c2)ccn1` [Example 342, N-((4-(5-cyclopropyl-1,3,4-oxadiazol-2-yl)bicyclo[2.2.2]octan-1-yl)methyl)-3-fluoro-N-(3-(2-methoxypyridin-4-yl)phenyl)bicyclo[1.1.1]pentane-1-carboxamide] showed an EC50 of 120 nM. For `CC(C)(O)c1ccc(-c2cccc(N(CC34CCC(c5noc(C(C)(C)F)n5)(CC3)CC4)C(=O)N[C@H]3C[C@]4(C[C@@H](O)C4)C3)c2)cc1` (stereo partly drawn) [Example 664, 1-((4-(5-(2-fluoropropan-2-yl)-1,2,4-oxadiazol-3-yl)bicyclo[2.2.2]octan-1-yl)methyl)-1-(4′-(2-hydroxypropan-2-yl)-[1,1′-biphenyl]-3-yl)-3-((2S,4S,6S)-6-hydroxyspiro[3.3]heptan-2-yl)urea], the EC50 under setting [1] was determined as 47 nM.

Turning to `CC(C)(O)c1ccc(-c2cccc(N(CC34CCC(c5noc(C(C)(C)F)n5)(CC3)CC4)C(=O)N3CC4(C3)CS(=O)(=O)C4)c2)cc1` [Example 641, N-((4-(5-(2-fluoropropan-2-yl)-1,2,4-oxadiazol-3-yl)bicyclo[2.2.2]octan-1-yl)methyl)-N-(4′-(2-hydroxypropan-2-yl)-[1,1′-biphenyl]-3-yl)-2-thia-6-azaspiro[3.3]heptane-6-carboxamide 2,2-dioxide], the response under setting [1] was half-maximal at 1300 nM (EC50).

For the compound `CCOc1ncc(-c2cccc(N(CC34CCC(c5noc(C(C)(C)C)n5)(CC3)CC4)C(=O)C34CC(F)(C3)C4)c2)cn1` [Example 437, N-((4-(5-(tert-butyl)-1,2,4-oxadiazol-3-yl)bicyclo[2.2.2]octan-1-yl)methyl)-N-(3-(2-ethoxypyrimidin-5-yl)phenyl)-3-fluorobicyclo[1.1.1]pentane-1-carboxamide], the concentration giving a half-maximal response (EC50) under setting [1] stood at 39 nM. The same measure, in the same setting: as for `CC(C)(O)c1ccc(-c2cccc(N(CC34CCC(c5noc(C(C)(F)F)n5)(CC3)CC4)C(=O)C34CC(C#N)(C3)C4)c2)cc1` [Example 585, 3-cyano-N-((4-(5-(1,1-difluoroethyl)-1,2,4-oxadiazol-3-yl)bicyclo[2.2.2]octan-1-yl)methyl)-N-(4′-(2-hydroxypropan-2-yl)-[1,1′-biphenyl]-3-yl)bicyclo[1.1.1]pentane-1-carboxamide], the figure is 18 nM. Compound `CC(C)(C)c1nc(C23CCC(CN(C(=O)C4CC(O)(C(F)(F)F)C4)c4cccc(-c5ccc(OC(F)F)cc5)c4)(CC2)CC3)no1` [Example 516, (1S,3S)—N-((4-(5-(tert-butyl)-1,2,4-oxadiazol-3-yl)bicyclo[2.2.2]octan-1-yl)methyl)-N-(4′-(difluoromethoxy)-[1,1′-biphenyl]-3-yl)-3-hydroxy-3-(trifluoromethyl)cyclobutane-1-carboxamide] came in with an EC50 of 94 nM. Same read-out and setting: as for `CCOc1ncc(-c2cccc(N(CC34CCC(c5noc(C6(C)COC6)n5)(CC3)CC4)C(=O)[C@H]3C[C@](O)(C(F)(F)F)C3)c2)cn1` [Example 520, (1S,3S)—N-(3-(2-ethoxypyrimidin-5-yl)phenyl)-3-hydroxy-N-((4-(5-(3-methyloxetan-3-yl)-1,2,4-oxadiazol-3-yl)bicyclo[2.2.2]octan-1-yl)methyl)-3-(trifluoromethyl)cyclobutane-1-carboxamide], the figure is 449 nM.

`Cc1nc2ccc(-c3cncc(N(CC45CCC(c6nc(C(C)(C)C)no6)(CC4)CC5)C(=O)C45CC(F)(C4)C5)c3)cc2s1` [Example 474, N-((4-(3-(tert-butyl)-1,2,4-oxadiazol-5-yl)bicyclo[2.2.2]octan-1-yl)methyl)-3-fluoro-N-(5-(2-methylbenzo[d]thiazol-6-yl)pyridin-3-yl)bicyclo[1.1.1]pentane-1-carboxamide] had an EC50 of 541 nM. Consider `CCOc1ccc(-c2cccc(N(CC34CCC(c5ccc(C(F)(F)F)cn5)(CC3)CC4)C(=O)C34CC(F)(C3)C4)c2)cc1` [Example 489, N-(4′-ethoxy-[1,1′-biphenyl]-3-yl)-3-fluoro-N-((4-(5-(trifluoromethyl)pyridin-2-yl)bicyclo[2.2.2]octan-1-yl)methyl)bicyclo[1.1.1]pentane-1-carboxamide], for which the response was half-maximal at 1640 nM (EC50).

The compound `CCOc1ncc(-c2cccc(N(CC34CCC(c5noc(C(C)(C)C)n5)(CC3)CC4)C(=O)[C@H]3C[C@@H](OC)C3)c2)cn1` [Example 511, (1S,3S)—N-((4-(5-(tert-butyl)-1,2,4-oxadiazol-3-yl)bicyclo[2.2.2]octan-1-yl)methyl)-N-(3-(2-ethoxypyrimidin-5-yl)phenyl)-3-methoxycyclobutane-1-carboxamide] had an EC50 of 411 nM. Compound `CC(C)(O)c1ccc(-c2cccc(N(CC34CCC(c5noc(C(C)(C)F)n5)(CC3)CC4)C(=O)NCC3(O)CC3)c2)cc1` [Example 648, 1-((4-(5-(2-fluoropropan-2-yl)-1,2,4-oxadiazol-3-yl)bicyclo[2.2.2]octan-1-yl)methyl)-3-((1-hydroxycyclopropyl)methyl)-1-(4′-(2-hydroxypropan-2-yl)-[1,1′-biphenyl]-3-yl)urea] returned an EC50 of 509 nM. `Cc1nc2c(C(F)(F)F)cc(-c3cccc(N(CC45CCC(c6nc(C7CC7)no6)(CC4)CC5)C(=O)C45CC(F)(C4)C5)c3)cn2n1` [Example 321, N-((4-(3-cyclopropyl-1,2,4-oxadiazol-5-yl)bicyclo[2.2.2]octan-1-yl)methyl)-3-fluoro-N-(3-(2-methyl-8-(trifluoromethyl)-[1,2,4]triazolo[1,5-a]pyridin-6-yl)phenyl) bicyclo[1.1.1]pentane-1-carboxamide] had an EC50 under setting [1] of 1460 nM.

The values above are taken from patent US11254663B2 (BRISTOL-MYERS SQUIBB COMPANY, priority 2019, dated 2022).
